From paper PMC5803267, “A small molecule inhibitor of Rheb selectively targets mTORC1 signaling” (Nature Communications, 2018)

What was measured:
Format in all cases: cell-based, human
[1] = tested on: T389pS6K1 (mTORC1 activity) in MCF-7 cells; experiment: T389pS6K1 AlphaLISA assay in MCF-7 cells
From the text: (§1) We next evaluated the activity of NR1 in cell culture. Selective inhibition of mTORC1 in cells produces a specific signaling signature characterized by a reduction in phosphorylation of the mTORC1 substrates S6K1 and 4E-BP1 and increase in phosphorylation of AKT, catalyzed by mTORC2. This distinctive profile reflects the relief of a feedback loop where active S6K1 directly phosphorylates IRS1, resulting in the degradation of IRS1 and subsequent reduction of growth factor signaling from RTKs to downstream effectors such as AKT[1]. Conversely, reduction in ^T389pS6K1 is expected to lead to an increase in ^S473pAKT levels. We used AlphaLISA assays to detect ^T389pS6K1 and ^S473pAKT in MCF-7 cells. […]
Evaluation of NR1 in MCF-7 under replete conditions. […] The indicated phosphoproteins were detected using AlphaLISA assays for T389pS6K1 (reflecting mTORC1 activity) and S473pAKT (reflecting mTORC2 activity). […]
The compounds were added to the kinase reaction mixture by Acoustic technology (Echo550; nanoliter range) and incubated for 20 min at room temperature before the addition of 100 µM 33P-ATP. The reaction was incubated for 2 h at room temperature, and kinase activity was detected by a P81 filter- […]
AlphaLISA assays. […] The AlphaLISA protocol was performed in 384-well plates as instructed by Perkin Elmer, and the plates were read on an EnVision plate reader. […]

[2] = tested on: mTORC1 signaling in TRI102 cells; experiment: mTORC1 signaling Western blot in TRI102 cells; settings: replete and serum-starved conditions, 90 min, dose-dependent
Method: MCF-7 cells were serum-starved for 16 h and treated with compound for 90 min before cell lysis and Western blot analysis. For insulin-stimulated cells, 100 nM insulin was added 30 min before cell lysis. For EGF-stimulated cells, 100 ng mL^−1 EGF was added 10 min before cell lysis. c Rap1 activity was detected in lysates loaded in vitro with either GDP or GTPγS and treated with NR1 at the indicated concentrations. This was followed by a subsequent pulldown of GST-RalGDS-RBD. Bound Rap1 was detected by Western blot. d Evaluation of NR1 in a LAM patient-derived cell line (TRI102) under replete and serum-starved conditions. For replete conditions, TRI102 cells were treated for 90 min with compound in DMEM + 10% FBS. For serum-starved conditions, TRI102 cells were serum-starved 16 h and then treated for 90 min with compound prior to cell lysis and Western blot analysis. e HEK293 cells co-transfected with the indicated mTOR constructs and HA-GST-S6K1 were starved of amino acids or treated with NR1. To assess mTORC1 activity, an HA IP was performed and Western blots probed for ^T389pS6K1. f Chronic treatment of PC3 cells with NR1 to evaluate the inhibition of mTORC1 (using ^T389pS6K1) versus mTORC2 (using ^S473pAKT). PC3 cells were treated with compound under replete conditions for 24 h prior to cell lysis and Western blot analysis. […]

pS6K1 in MCF-7 cells = experiment: Insulin-stimulated mTORC1 signaling Western blot in MCF-7 cells; settings: MCF-7, 10 µM NR1
From the text: as §1, with “cells. During the development of the assays, we noticed that ^T389pS6K1 was more responsive to our compound series than ^T37/46p4E-BP1, which may be due to differences in mTORC1 substrate classes in a cellular setting.” for “cells.”
MCF-7 cells were serum-starved for 16 h and treated with compound for 90 min before cell lysis and Western blot analysis. […] For EGF-stimulated cells, 100 ng mL^−1 EGF was added 10 min before cell lysis. c Rap1 activity was detected in lysates loaded in vitro with either GDP or GTPγS and treated with NR1 at the indicated concentrations. […] Bound Rap1 was detected by Western blot. d Evaluation of NR1 in a LAM patient-derived cell line (TRI102) under replete and serum-starved conditions. […]

CN(C)C(=O)c1ccc(Cn2c(C(=O)O)cc3c(Br)cc(Sc4ccc(Cl)c(Cl)c4)cc32)cc1 [NR1, 4-bromo-6-(3,4-dichlorophenylthio)-1-(4-(dimethylcarbamoyl)benzyl)-1H-indole-2-carboxylic acid]
IC50 ([1]; Homo sapiens, MCF7, inhibition of S6K phosphorylation in cells, read-out: potency in cellular assays): 2 µM
phosphorylation of T389pS6K1 ([1]; MCF-7, replete conditions, 120 min, dose-dependent): inhibited the phosphorylation
mTORC1 signaling in TRI102 cells [2]: inhibits mTORC1 signaling
S6K1 phosphorylation compared with rapamycin (pS6K1 in MCF-7 cells): does not inhibit S6K1 phosphorylation as well as 100 nM rapamycin
